# In PubChem BioAssay AID2060904 (Molecular Pharmacology Branch, DTP, NCI, 2025):
# Tested on: 349418-098-R-PDC complex spheroid viability
# Assay: Anticancer human tumor 349418-098-R-PDC patient-derived lung adenocarcinoma cell line growth inhibition [RAS]
# Details: for IC50: curve of first compound; for viability, T/C: stronger effect = lower value
# Source text: RAS pathway inhibitors in Combinations in Complex Spheroids
# A high-throughput screen of multi-cell type tumor spheroids was designed to identify active combinations of RAS pathway inhibitors and targeted small molecules. Complex spheroids include a stromal component modeled by human endothelial cells (HUVEC) and fibroblasts modeled by human mesenchymal stem cells (MSCs). The concentration ranges selected for each drug and investigational agent were based upon clinically achievable concentrations if the clinical Cmax of the agent was known.
# Compounds. The drugs and investigational agents: abemaciclib (NSC768073), cobimetinib (NSC768068), divarasib (GDC6063, NSC841802), docetaxel (NSC628503), GDC-1971 (RLY-1971, NSC841576), gemcitabine (NSC613327), inavolisib (NSC800729), ipatasertib (NSC767898), KB-0742 (NSC834161), MRTX-1133 (NSC836407), osimertinib (NSC779217), RMC-4630 (NSC839698), RMC-6236 (NSC851965), RMC-6291 (NSC852671), Ro-3306 (NSC812927), sapanisertib (NSC764658), SN-38 (NSC673596), staurosporine (NSC755774), SY5609 (NSC837396), and tovorafenib (DAY101, NSC766906), were obtained from the National Cancer Institute (NCI) Developmental Therapeutics Program Chemical Repository. The FDA-approved anticancer drug set is available from the NCI Developmental Therapeutics Program. […] The stock solutions were prepared in dimethyl sulfoxide (DMSO, Sigma-Aldrich, St. Louis, MO, cat. D2650) at 800-fold the tested concentration and stored at -70 degrees C prior to their use. All drugs and investigational agents were tested over a range starting from a high concentration at or near the clinical Cmax and decreasing in half-log increments. If the clinical Cmax for an agent had not been determined, the highest concentration tested was 10 microM.
# Cell Culture. All cells were maintained in an incubator at 37 degrees C and 5% CO2 with 95% humidity. The PDC lines were cultured according to standard operating procedures established by the NCI PDMR. All PDCs were thawed and cultured in Matrigel-coated flasks prepared with a working solution of 1X Ham's F-12 nutrient mix, without supplementation (Invitrogen, Waltham, MA, cat. 11765054), 100 U/mL penicillin-streptomycin (Invitrogen, cat. 15140122), and 2.5% Matrigel (Corning Inc., Corning, NY, cat. 354248) for the first three passages. The 362531-283-R-J2-PDC and 782815-120-R-J1-PDC lines were cultured in 6C/Colon 1B media, which includes advanced DMEM/F-12 (Thermo Fisher Scientific, cat. 12634028), 10 mM HEPES (Thermo Fisher Scientific, cat. 15630080), 1X GlutaMAX supplement (Thermo Fisher Scientific, cat. 35050061), 0.1 mg/mL primocin (InvivoGen, San Diego, CA, cat. ant-pm-2), 10% defined fetal bovine serum, heat inactivated (HyClone Laboratories Inc., Logan, UT, cat. SH30070.03HI), 50% L-WRN conditioned media (ATCC, cat. CRL-3276), 1.25 mM N-Acetyl-L-cysteine (Sigma-Aldrich, cat. A9165), 10 mM nicotinamide (Sigma-Aldrich, cat. N0636), 1X B-27 supplement (Thermo Fisher Scientific, cat. 17504044), 1X N-2 supplement (Thermo Fisher Scientific, cat. 17502048), 50 ng/mL human EGF (Thermo Fisher Scientific, cat. PHG0311), and 10 microM Y-27632 dihydrochloride (Tocris Bioscience, cat. 1254). The K12877-001-R-J1-PDC line was cultured in 6I media, which includes all 6C/Colon 1B media plus 10 ng/mL human FGF-10 (PeproTech, cat. 100-26), 1 ng/mL human FGF-2 (PeproTech, cat. 100-18B), 1 µM prostaglandin E2 (Tocris Bioscience, cat. 2296), […] hydrocortisone (Sigma-Aldrich, cat. H4001), and […] bovine insulin (Sigma-Aldrich, cat. I6634). The K86415-001-R-J1-PDC line was cultured in 6D media, which includes all 6C/Colon 1B media components minus the L-WRN conditioned media. The 485176-168-R4-J1-PDC was cultured in PANC media, which includes all 6C/Colon 1B media plus 100 ng/mL human FGF-10 (PeproTech, cat. 100-26), 500 nM SB-431542 (Selleckchem, cat. S1067), and 10 nM gastrin (Tocris Bioscience, cat. 3006). […]
# 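Further: spheroids exposed to compound for seven days before viability readout.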
smiles,measurement,setting,value
Cc1nc(N2CCC3(CC2)COC(C)C3N)c(CO)nc1Sc1ccnc(N)c1Cl (configuration not stated) + CCn1c(-c2cc(N3CCN(C)CC3)cnc2C(C)OC)c2c3cc(ccc31)-c1csc(n1)CC(NC(=O)C1CC1C)C(=O)N1CCCC(N1)C(=O)OCC(C)(C)C2,IC50,second compound 0.000949 µM,> 10 µM
same,IC50,second compound 0.003 µM,> 10 µM
same,IC50,second compound 0.00949 µM,> 10 µM
same,IC50,second compound 0.03 µM,> 10 µM
same,IC50,second compound 0.0949 µM,> 10 µM
same,IC50,second compound 0.3 µM,> 10 µM
same,"viability, T/C","second compound 0.000949 µM, first compound 0.0316 µM",90.4%
same,"viability, T/C","second compound 0.000949 µM, first compound 0.1 µM",99.3%
same,"viability, T/C","second compound 0.000949 µM, first compound 0.316 µM",88.4%
same,"viability, T/C","second compound 0.000949 µM, first compound 1 µM",102%
same,"viability, T/C","second compound 0.000949 µM, first compound 3.16 µM",97.2%
same,"viability, T/C","second compound 0.000949 µM, first compound 10 µM",95.7%
same,"viability, T/C","second compound 0.003 µM, first compound 0.0316 µM",114%
same,"viability, T/C","second compound 0.003 µM, first compound 0.1 µM",103%
same,"viability, T/C","second compound 0.003 µM, first compound 0.316 µM",104%
same,"viability, T/C","second compound 0.003 µM, first compound 1 µM",103%
same,"viability, T/C","second compound 0.003 µM, first compound 3.16 µM",100%
same,"viability, T/C","second compound 0.003 µM, first compound 10 µM",95.8%
same,"viability, T/C","second compound 0.00949 µM, first compound 0.0316 µM",111%
same,"viability, T/C","second compound 0.00949 µM, first compound 0.1 µM",89.2%
same,"viability, T/C","second compound 0.00949 µM, first compound 0.316 µM",97.1%
same,"viability, T/C","second compound 0.00949 µM, first compound 1 µM",112%
same,"viability, T/C","second compound 0.00949 µM, first compound 3.16 µM",114%
same,"viability, T/C","second compound 0.00949 µM, first compound 10 µM",115%
same,"viability, T/C","second compound 0.03 µM, first compound 0.0316 µM",96%
same,"viability, T/C","second compound 0.03 µM, first compound 0.1 µM",106%
same,"viability, T/C","second compound 0.03 µM, first compound 0.316 µM",105%
same,"viability, T/C","second compound 0.03 µM, first compound 1 µM",99.1%
same,"viability, T/C","second compound 0.03 µM, first compound 3.16 µM",106%
same,"viability, T/C","second compound 0.03 µM, first compound 10 µM",90.6%
same,"viability, T/C","second compound 0.0949 µM, first compound 0.0316 µM",104%
same,"viability, T/C","second compound 0.0949 µM, first compound 0.1 µM",114%
same,"viability, T/C","second compound 0.0949 µM, first compound 0.316 µM",79%
same,"viability, T/C","second compound 0.0949 µM, first compound 1 µM",92%
same,"viability, T/C","second compound 0.0949 µM, first compound 3.16 µM",102%
same,"viability, T/C","second compound 0.0949 µM, first compound 10 µM",104%
same,"viability, T/C","second compound 0.3 µM, first compound 0.0316 µM",109%
same,"viability, T/C","second compound 0.3 µM, first compound 0.1 µM",106%
same,"viability, T/C","second compound 0.3 µM, first compound 0.316 µM",100%
same,"viability, T/C","second compound 0.3 µM, first compound 1 µM",107%
same,"viability, T/C","second compound 0.3 µM, first compound 3.16 µM",115%
same,"viability, T/C","second compound 0.3 µM, first compound 10 µM",115%
